Measured values as given in patent US6555570B2, “Compounds with growth hormone releasing properties” (Novo Nordisk A/S, priority 1995, dated 2003).
Where a name gives a salt, the structure may show the parent alone.

A melting point of 138 to 145 °C was found for CN(C(=O)[C@@H](Cc1ccc2ccccc2c1)N(C)C(=O)/C=C/CC(C)(C)N)[C@@H](CNC(=S)NC1CC1)Cc1ccccc1 (as salt: trifluoroacetic acid salt) in this work.
